Measured values: patent publication US6329155A, “Methods of identifying agents which regulate release of amyloid precursor protein” (Massachusetts Institute of Technology, priority 1994, dated 2001)
Ends that are not written are not given here.

Tests used:
human m3 mAChR = biological target: T1, human m3 mAChR (Homo sapiens, UniProt P20309); assay type: cell-based
T1 construct: expressed in transfected cells; m3 200,000 receptors per cell

[1] = biological target: T2, PC-12 bradykinin receptors (Rattus norvegicus, UniProt P25023); assay: Secretion of soluble APP (APPs) by PC-12 cells via bradykinin receptors; assay type: cell-based
T2 construct: functional APPs secretion
T2 sequence (P25023 1-396): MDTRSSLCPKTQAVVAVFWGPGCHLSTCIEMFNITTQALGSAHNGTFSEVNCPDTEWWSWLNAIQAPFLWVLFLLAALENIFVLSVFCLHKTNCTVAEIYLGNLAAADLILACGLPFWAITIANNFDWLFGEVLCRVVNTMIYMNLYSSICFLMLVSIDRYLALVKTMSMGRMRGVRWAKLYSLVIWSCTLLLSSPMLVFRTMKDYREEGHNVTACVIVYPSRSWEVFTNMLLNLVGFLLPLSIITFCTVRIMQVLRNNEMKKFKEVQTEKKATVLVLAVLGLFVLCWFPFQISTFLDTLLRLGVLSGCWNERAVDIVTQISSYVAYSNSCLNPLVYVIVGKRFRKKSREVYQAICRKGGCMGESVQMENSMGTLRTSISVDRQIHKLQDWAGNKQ
Method: PC-12 cell lines were obtained from American Type Culture Collection (CRL 1721) and grown in Dulbecco's modified Eagle's medium supplemented with 10% horse serum and 2.5% fetal bovine serum at 37° C. under a 5% carbon dioxide atmosphere. Cells were plated on collagen-coated culture dishes. For differentiation into the neuronal phenotype, 50 ng/ml nerve growth factor was added 24 hours after plating and differentiation was verified after three days by neurite outgrowth. Experiments were conducted with subconfluent monolayers approximately five days after plating.
Media were removed from culture dishes; cells were washed twice with serum-free N2 medium and experiments were done at 37° C. on a hot plate in serum-free N2 medium. Media were removed after incubation periods, desalted on sephadex G-25 columns with water as eluent, lyophilized and resuspended in 100 μl sample butter, and boiled for five minutes. Experiments were carried out in triplicate culture dishes and were repeated three to six times.
Cells were treated with 10 μM bradykinin or with vehicle (control) and secretion of APP was assessed over time, using Western blot and densitometry. […] Membranes were blocked, and probed with monoclonal antibody 22C11. Membranes were washed, and incubated with anti-mouse IgG conjugated to horseradish peroxidase. Bands were visualized with enhanced chemiluminescence using pre-flashed (linear) x-ray films. For densitometric analysis, bands were scanned with a Pharmacia LKB UltroScan XL laser densitometer set at 40 μm vertical interval size and […] horizontal slit width. Data were normalized to vehicle-treated controls which were always run within the same blots.

human m1 mAChR = biological target: T3, human m1 mAChR (Homo sapiens, UniProt P11229)
T3 sequence (P11229 1-460): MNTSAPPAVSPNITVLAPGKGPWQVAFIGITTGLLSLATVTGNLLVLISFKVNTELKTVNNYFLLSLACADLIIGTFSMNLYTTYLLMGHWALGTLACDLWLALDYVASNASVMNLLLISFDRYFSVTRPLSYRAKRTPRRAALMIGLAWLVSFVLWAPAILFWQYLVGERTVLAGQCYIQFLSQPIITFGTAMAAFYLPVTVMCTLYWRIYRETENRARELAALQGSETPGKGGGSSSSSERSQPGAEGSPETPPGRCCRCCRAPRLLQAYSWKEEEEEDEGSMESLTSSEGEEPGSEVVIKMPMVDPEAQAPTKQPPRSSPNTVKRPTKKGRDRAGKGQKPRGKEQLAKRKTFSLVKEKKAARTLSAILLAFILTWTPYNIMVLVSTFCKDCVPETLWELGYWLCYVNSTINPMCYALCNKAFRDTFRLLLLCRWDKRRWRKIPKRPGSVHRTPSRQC

[2] = test system: serotonin receptor subtype 5HT2; assay: APP derivative release by 3T3 fibroblasts transfected with serotonin receptor subtype 5HT2; assay type: cell-based; details: 3T3 fibroblasts transfected with 5HT2; serum-deprived 24 hours
human m2 mAChR = assay: APP release by human 293 cells transfected with m2 mAChR; assay type: cell-based; details: carbachol
human m4 mAChR = assay: APP release by human 293 cells transfected with m4 mAChR; assay type: cell-based; details: carbachol
wild-type 293 cells = assay: APP release by wild-type (nontransfected) human 293 cells; assay type: cell-based; details: wild-type cell lines; carbachol
[3] = test system: mAChR-transfected 293 cell lines; assay: APP processing in mAChR-transfected 293 cell lines, subtype not stated (Western blot); assay type: cell-based, human
[4] = stimulation with carbachol, Western blot

T1 sequence (P20309 whole entry): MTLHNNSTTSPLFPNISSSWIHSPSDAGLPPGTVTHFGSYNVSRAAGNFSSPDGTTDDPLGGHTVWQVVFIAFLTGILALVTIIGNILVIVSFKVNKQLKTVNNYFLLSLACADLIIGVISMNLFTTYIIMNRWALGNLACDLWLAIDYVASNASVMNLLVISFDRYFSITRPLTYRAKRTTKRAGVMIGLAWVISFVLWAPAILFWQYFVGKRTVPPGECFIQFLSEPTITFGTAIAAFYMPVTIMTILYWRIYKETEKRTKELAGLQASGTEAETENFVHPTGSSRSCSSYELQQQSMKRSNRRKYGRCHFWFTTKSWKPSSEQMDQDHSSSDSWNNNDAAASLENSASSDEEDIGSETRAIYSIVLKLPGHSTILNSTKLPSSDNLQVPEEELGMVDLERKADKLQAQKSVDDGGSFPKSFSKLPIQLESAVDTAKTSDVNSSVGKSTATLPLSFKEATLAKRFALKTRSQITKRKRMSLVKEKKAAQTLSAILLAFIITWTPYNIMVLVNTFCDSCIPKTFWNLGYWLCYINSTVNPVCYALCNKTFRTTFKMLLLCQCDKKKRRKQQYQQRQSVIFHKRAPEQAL

Q: Which “effect on receptor-activated (carbachol-induced) APP release” value (human m3 mAChR) does the source give for CN[C@@H]1C[C@H]2O[C@@](C)([C@@H]1OC)n1c3ccccc3c3c4c(c5c6ccccc6n2c5c31)C(=O)NC4 [staurosporine] here?
A: inhibited

Q: And the “effect on bradykinin-induced APPS secretion” value ([1]; PC-12 cells, added with bradykinin)?
A: inhibited

Q: What about the “effect on receptor-activated (carbachol-induced) APP release” value (human m1 mAChR) of the same compound?
A: inhibited

Q: With NCCc1c[nH]c2ccc(O)cc12 [Serotonin] as the compound, how does the “release of N-terminal non-amyloidogenic APP derivatives” value [2] read?
A: increases release

Q: With C[N+](C)(C)CCOC(N)=O [carbachol] as the compound, how does the “basal release of APP fragments, effect of agonist” value (shortened to “basal release of APP fragments”) (human m2 mAChR) read?
A: not stimulated

Q: And the “basal release of APP fragments” value (human m4 mAChR)?
A: not stimulated

Q: What about the “basal release of APP fragments” value (wild-type 293 cells) of the same compound?
A: not stimulated

Q: What about the “128 kD APP derivative secreted into the culture medium” value [3, 4] of the same compound?
A: increase

Q: And the “abundance of cell-associated 115 kD APP” value [3, 4]?
A: remained unaffected

Q: What about the “abundance of cell-associated 141 kD APP” value [3, 4] of the same compound?
A: decreased

Q: Which results are given for RPPGFSPFR [bradykinin]?
A: secretion of soluble N-terminal APP derivatives (APPS) into the medium ([1]; NGF-differentiated PC-12 cells, 10 μM bradykinin vs vehicle): increases; APPs secretion in undifferentiated PC-12 cells ([1]; PC-12 cells without nerve growth factor): stimulates

Q: Which “stimulation of basal APP release by calcium ionophore alone” value ([3]; 10 μm ionophore, cell line not stated in text (FIG. 1B)) does the source give for CNc1ccc2oc(C[C@H]3O[C@@]4(CC[C@H]3C)O[C@H]([C@H](C)C(=O)c3ccc[nH]3)[C@H](C)C[C@H]4C)nc2c1C(=O)O [A23187] here?
A: failure
